Source: EP4223292A1, “PHARMACEUTICAL COMBINATIONS FOR TREATING CANCER” (Cellestia Biotech AG, priority 2022, dated 2023)

System: Human TNBC cell line HCC1187
Assay: In vivo efficacy study, tumor growth delay of subcutaneous HCC1187 xenograft
Design: species or system NSG mice
Details: for TGD compared to control (group a): endpoint ten times the initial volume (1000%), difference of MTTE versus control
Source text: Cultured cells were harvested, washed and counted. One million cells per mouse were subcutaneously transplanted into NSG mice. Animals were monitored for tumor growth. Once average tumor volume reached between 50-130 mm^3, animals were randomized for treatment with 6-(4-Tert-Butylphenoxy)Pyridin-3-Amine , Paclitaxel as single agent and 6-(4-Tert-Butylphenoxy)Pyridin-3-Amine + Paclitaxel combination. The treatment regimen was implemented as below: • a) Vehicle • b) 6-(4-Tert-Butylphenoxy)Pyridin-3-Amine single agent for 2 weeks • c) Paclitaxel single agent for 2 weeks and then monitor tumor growth without further treatment • d) 6-(4-Tert-Butylphenoxy)Pyridin-3-Amine + Paclitaxel combination for 2 weeks and then monitor tumor growth without further treatment • e) 6-(4-Tert-Butylphenoxy)Pyridin-3-Amine + Paclitaxel combination for 2 weeks and then continue treatment with 6-(4-Tert-Butylphenoxy)Pyridin-3-Amine alone as single agent and monitor tumor growth.
Tumor dimensions (L=length, W=width) were measured using a digital caliper. Tumor volume was calculated with the following formula: L^∗W^∗W/2. Tumor growth is followed as percentage of initial volume. Median Time To Endpoint (MTTE) was measured in days for an individual group to reach 1000% (10 times) the initial volume as end point. Tumor Growth Delay (TGD) was calculated as difference in days between MTTE of control and treatment groups.

Row | Compound | TGD compared to control (group a) (group b: single agent for 2 weeks) [days] | efficacy (in words) (single agent alone, HCC1187 xenograft) | TGD compared to control (group a) (groups c, d: treatment for 2 weeks, then no treatment) [days]
1 | CC(C)(C)c1ccc(Oc2ccc(N)cn2)cc1 [6-(4-Tert-Butylphenoxy)Pyridin-3-Amine] | 3 | only modest efficacy | 
2 | CC(=O)O[C@H]1C(=O)[C@@]2(C)[C@H]([C@H](OC(=O)c3ccccc3)[C@]3(O)C[C@H](OC(=O)[C@H](O)[C@@H](NC(=O)c4ccccc4)c4ccccc4)C(C)=C1C3(C)C)[C@]1(OC(C)=O)CO[C@@H]1C[C@@H]2O [Paclitaxel, reference compound] |  |  | 21
